Measurements as given in BigSolDB 2.1.

`N#Cc1ccc2c(c1)OCO2` showed a solubility (mole fraction) (in 1,4-dioxane, 288.15 K) of 0.174, a solubility (mole fraction) (in 1,4-dioxane, 293.15 K) of 0.197 and a solubility (mole fraction) (in 1,4-dioxane, 298.15 K) of 0.221. The solubility (mole fraction) (in 1,4-dioxane, 303.15 K) was 0.256, the solubility (mole fraction) (in 1,4-dioxane, 308.15 K) was 0.283 and the solubility (mole fraction) (in 1,4-dioxane, 313.15 K) was 0.325. The solubility (mole fraction) (in 1,4-dioxane, 318.15 K) was 0.358, the solubility (mole fraction) (in 1,4-dioxane, 323.15 K) was 0.406 and the solubility (mole fraction) (in 2-methoxyethanol, 278.15 K) was 0.0495. The solubility (mole fraction) (in 2-methoxyethanol, 283.15 K) was 0.0606, the solubility (mole fraction) (in 2-methoxyethanol, 288.15 K) was 0.0722 and the solubility (mole fraction) (in 2-methoxyethanol, 293.15 K) was 0.0849. It also gave a solubility (mole fraction) (in 2-methoxyethanol, 298.15 K) of 0.101, a solubility (mole fraction) (in 2-methoxyethanol, 303.15 K) of 0.119 and a solubility (mole fraction) (in 2-methoxyethanol, 308.15 K) of 0.137. For the same compound, the solubility (mole fraction) (in 2-methoxyethanol, 313.15 K) was 0.16, the solubility (mole fraction) (in 2-methoxyethanol, 318.15 K) was 0.192 and the solubility (mole fraction) (in 2-methoxyethanol, 323.15 K) was 0.221. The solubility (mole fraction) (in DMF, 278.15 K) was 0.172, the solubility (mole fraction) (in DMF, 283.15 K) was 0.193 and the solubility (mole fraction) (in DMF, 288.15 K) was 0.212. The solubility (mole fraction) (in DMF, 293.15 K) was 0.239, the solubility (mole fraction) (in DMF, 298.15 K) was 0.264 and the solubility (mole fraction) (in DMF, 303.15 K) was 0.293. The solubility (mole fraction) (in DMF, 308.15 K) was 0.32, the solubility (mole fraction) (in DMF, 313.15 K) was 0.36 and the solubility (mole fraction) (in DMF, 318.15 K) was 0.39. For the same compound, the solubility (mole fraction) (in DMF, 323.15 K) was 0.433, the solubility (mole fraction) (in acetone, 278.15 K) was 0.101 and the solubility (mole fraction) (in acetone, 283.15 K) was 0.118. It also gave a solubility (mole fraction) (in acetone, 288.15 K) of 0.136, a solubility (mole fraction) (in acetone, 293.15 K) of 0.158 and a solubility (mole fraction) (in acetone, 298.15 K) of 0.181. The solubility (mole fraction) (in acetone, 303.15 K) was 0.207, the solubility (mole fraction) (in acetone, 308.15 K) was 0.237 and the solubility (mole fraction) (in acetone, 313.15 K) was 0.269. For the same compound, the solubility (mole fraction) (in acetone, 318.15 K) was 0.307, the solubility (mole fraction) (in acetone, 323.15 K) was 0.349 and the solubility (mole fraction) (in acetonitrile, 278.15 K) was 0.0673. For the same compound, the solubility (mole fraction) (in acetonitrile, 283.15 K) was 0.0811, the solubility (mole fraction) (in acetonitrile, 288.15 K) was 0.0999 and the solubility (mole fraction) (in acetonitrile, 293.15 K) was 0.12. The solubility (mole fraction) (in acetonitrile, 298.15 K) was 0.143, the solubility (mole fraction) (in acetonitrile, 303.15 K) was 0.173 and the solubility (mole fraction) (in acetonitrile, 308.15 K) was 0.203. The solubility (mole fraction) (in acetonitrile, 313.15 K) was 0.243, the solubility (mole fraction) (in acetonitrile, 318.15 K) was 0.283 and the solubility (mole fraction) (in acetonitrile, 323.15 K) was 0.33. The solubility (mole fraction) (in ethanol, 278.15 K) was 0.00686, the solubility (mole fraction) (in ethanol, 283.15 K) was 0.00878 and the solubility (mole fraction) (in ethanol, 288.15 K) was 0.0111. For the same compound, the solubility (mole fraction) (in ethanol, 293.15 K) was 0.0133, the solubility (mole fraction) (in ethanol, 298.15 K) was 0.0166 and the solubility (mole fraction) (in ethanol, 303.15 K) was 0.0214. The solubility (mole fraction) (in ethanol, 308.15 K) was 0.0266, the solubility (mole fraction) (in ethanol, 313.15 K) was 0.034 and the solubility (mole fraction) (in ethanol, 318.15 K) was 0.0435. For the same compound, the solubility (mole fraction) (in ethanol, 323.15 K) was 0.0548, the solubility (mole fraction) (in ethyl acetate, 278.15 K) was 0.0892 and the solubility (mole fraction) (in ethyl acetate, 283.15 K) was 0.102. It also gave a solubility (mole fraction) (in ethyl acetate, 288.15 K) of 0.118, a solubility (mole fraction) (in ethyl acetate, 293.15 K) of 0.14 and a solubility (mole fraction) (in ethyl acetate, 298.15 K) of 0.166. The solubility (mole fraction) (in ethyl acetate, 303.15 K) was 0.187, the solubility (mole fraction) (in ethyl acetate, 308.15 K) was 0.217 and the solubility (mole fraction) (in ethyl acetate, 313.15 K) was 0.247. The solubility (mole fraction) (in ethyl acetate, 318.15 K) was 0.282, the solubility (mole fraction) (in ethyl acetate, 323.15 K) was 0.322 and the solubility (mole fraction) (in isopropanol, 278.15 K) was 0.00473. It also gave a solubility (mole fraction) (in isopropanol, 283.15 K) of 0.00606, a solubility (mole fraction) (in isopropanol, 288.15 K) of 0.00772 and a solubility (mole fraction) (in isopropanol, 293.15 K) of 0.00933. It also gave a solubility (mole fraction) (in isopropanol, 298.15 K) of 0.0127, a solubility (mole fraction) (in isopropanol, 303.15 K) of 0.0168 and a solubility (mole fraction) (in isopropanol, 308.15 K) of 0.0202. The solubility (mole fraction) (in isopropanol, 313.15 K) was 0.0268, the solubility (mole fraction) (in isopropanol, 318.15 K) was 0.0338 and the solubility (mole fraction) (in isopropanol, 323.15 K) was 0.0445. For the same compound, the solubility (mole fraction) (in isopropyl acetate, 278.15 K) was 0.0657, the solubility (mole fraction) (in isopropyl acetate, 283.15 K) was 0.0784 and the solubility (mole fraction) (in isopropyl acetate, 288.15 K) was 0.0948. For the same compound, the solubility (mole fraction) (in isopropyl acetate, 293.15 K) was 0.112, the solubility (mole fraction) (in isopropyl acetate, 298.15 K) was 0.13 and the solubility (mole fraction) (in isopropyl acetate, 303.15 K) was 0.155. For the same compound, the solubility (mole fraction) (in isopropyl acetate, 308.15 K) was 0.179, the solubility (mole fraction) (in isopropyl acetate, 313.15 K) was 0.211 and the solubility (mole fraction) (in isopropyl acetate, 318.15 K) was 0.243. It also gave a solubility (mole fraction) (in isopropyl acetate, 323.15 K) of 0.277, a solubility (mole fraction) (in methanol, 278.15 K) of 0.00823 and a solubility (mole fraction) (in methanol, 283.15 K) of 0.0104. For the same compound, the solubility (mole fraction) (in methanol, 288.15 K) was 0.0123, the solubility (mole fraction) (in methanol, 293.15 K) was 0.0157 and the solubility (mole fraction) (in methanol, 298.15 K) was 0.0192. The solubility (mole fraction) (in methanol, 303.15 K) was 0.024, the solubility (mole fraction) (in methanol, 308.15 K) was 0.031 and the solubility (mole fraction) (in methanol, 313.15 K) was 0.0387. For the same compound, the solubility (mole fraction) (in methanol, 318.15 K) was 0.0495, the solubility (mole fraction) (in methanol, 323.15 K) was 0.0617 and the solubility (mole fraction) (in methyl acetate, 278.15 K) was 0.102. For the same compound, the solubility (mole fraction) (in methyl acetate, 283.15 K) was 0.118, the solubility (mole fraction) (in methyl acetate, 288.15 K) was 0.137 and the solubility (mole fraction) (in methyl acetate, 293.15 K) was 0.16. The solubility (mole fraction) (in methyl acetate, 298.15 K) was 0.184, the solubility (mole fraction) (in methyl acetate, 303.15 K) was 0.21 and the solubility (mole fraction) (in methyl acetate, 308.15 K) was 0.24. For the same compound, the solubility (mole fraction) (in methyl acetate, 313.15 K) was 0.274, the solubility (mole fraction) (in methyl acetate, 318.15 K) was 0.31 and the solubility (mole fraction) (in methyl acetate, 323.15 K) was 0.353. The solubility (mole fraction) (in n-propanol, 278.15 K) was 0.00603, the solubility (mole fraction) (in n-propanol, 283.15 K) was 0.00758 and the solubility (mole fraction) (in n-propanol, 288.15 K) was 0.00949. The solubility (mole fraction) (in n-propanol, 293.15 K) was 0.0122, the solubility (mole fraction) (in n-propanol, 298.15 K) was 0.0159 and the solubility (mole fraction) (in n-propanol, 303.15 K) was 0.02. For the same compound, the solubility (mole fraction) (in n-propanol, 308.15 K) was 0.0255, the solubility (mole fraction) (in n-propanol, 313.15 K) was 0.0329 and the solubility (mole fraction) (in n-propanol, 318.15 K) was 0.0433. The solubility (mole fraction) (in n-propanol, 323.15 K) was 0.0573, the solubility (mole fraction) (in n-propyl acetate, 278.15 K) was 0.0785 and the solubility (mole fraction) (in n-propyl acetate, 283.15 K) was 0.0928. The solubility (mole fraction) (in n-propyl acetate, 288.15 K) was 0.113, the solubility (mole fraction) (in n-propyl acetate, 293.15 K) was 0.128 and the solubility (mole fraction) (in n-propyl acetate, 298.15 K) was 0.149. The solubility (mole fraction) (in n-propyl acetate, 303.15 K) was 0.176, the solubility (mole fraction) (in n-propyl acetate, 308.15 K) was 0.204 and the solubility (mole fraction) (in n-propyl acetate, 313.15 K) was 0.235. For the same compound, the solubility (mole fraction) (in n-propyl acetate, 318.15 K) was 0.27 and the solubility (mole fraction) (in n-propyl acetate, 323.15 K) was 0.31.
